US9044485B2, “Ceftolozane antibiotic compositions” (priority 2013, dated 2015)

Legend:
[1] = system: Enterobacteriaceae; experiment: In vitro activity against Gram-positive and Gram-negative bacteria (surveillance data); type: cell-based; conditions: against Acinetobacter spp. and common species of Enterobacteriaceae
Procedure: The in vitro activity of ceftolozane and ceftolozane/tazobactam was evaluated against a broad range of Gram-positive and Gram-negative bacteria.

[2] = Intrinsic pH of ceftolozane in solution; type: physicochemical; conditions: in solution (2%)
[3] = system: P. aeruginosa; experiment: Minimum inhibitory concentration (MIC90); type: cell-based; conditions: Pseudomonas aeruginosa

| SMILES | effect on in vitro activity of ceftolozane (in words) [1] | intrinsic pH [2] | MIC90 [3] [µg/mL] |
| --- | --- | --- | --- |
| C[C@]1(Cn2ccnn2)[C@H](C(=O)O)N2C(=O)C[C@H]2S1(=O)=O [tazobactam, (2S,3S,5R)-3-methyl-7-oxo-3-(1H-1,2,3-triazol-1-ylmethyl)-4-thia-1-azabicyclo[3.2.0]heptane-2-carboxylic acid 4,4-dioxide] | potentiated the activity of ceftolozane | – | – |
| Cn1c(N)c(NC(=O)NCCN)c[n+]1CC1=C(C(=O)O)N2C(=O)[C@@H](NC(=O)/C(=N\OC(C)(C)C(=O)O)c3nsc(N)n3)[C@H]2SC1 [ceftolozane, (6R,7R)-3-[(5-amino-4-{[(2-aminoethyl)carbamoyl]amino}-1-methyl-1H-pyrazol-2-ium-2-yl)methyl]-7-({(2Z)-2-(5-amino-1,2,4-thiadiazol-3-yl)-2-[(1-carboxy-1-methylethoxy)imino]acetyl}amino)-8-oxo-5-thia-1-azabicyclo[4.2.0]oct-2-ene-2-carboxylate] | – | 1.92 | ≤ 2 |
